For one test, the system named is HCT116 cells. The test is described as follows: Calculated oxaliplatin IC50 in parental HCT116 cells. As to conditions: read-out: calculated IC50.
The subject of test [1] is oxaliplatin resistance HCT116 cells. The test is described as follows: Calculated oxaliplatin IC50 in oxaliplatin resistant HCT116 cells. As to conditions: read-out: calculated IC50; HCT116 cells rendered oxaliplatin resistant by stepwise increasing oxaliplatin over 16 passages.

The text below walks through data of patent US20130323231A1, “TREATMENT AND PROGNOSIS OF SOLID TUMOUR CANCERS” (ROYAL COLLEGE OF SURGEONS IN IRELAND, priority 2011, published 2013).

Molecules are shown by their SMILES. pIC50: −log10 of the molar value.

`O=C1[O][Pt]2([NH][C@@H]3CCCC[C@H]3[NH]2)[O]C1=O` [oxaliplatin]: the pIC50 in the test with HCT116 cells was 6.46; in test [1] it was 5.30.
